From PubChem BioAssay (NCI)
Several values for one entry are separate records, joined by “and”; a condition that tells them apart may be missing. Equal entries are not always repeated.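 Test compounds were applied to cells in 96-well plates for 48 hours at 5 doses. Abbreviation: GI50, concentration required for 50% inhibition of growth. TGI marks complete inhibition of growth.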

Legend:
Assay in all cases: NCI tumour cell line growth inhibition, 48 h
LOX IMVI melanoma = tested on: LOX IMVI melanoma
OVCAR-4 ovarian = tested on: OVCAR-4 ovarian
UO-31 renal = tested on: UO-31 renal
HCT-15 colon = tested on: HCT-15 colon
786-0 renal = tested on: 786-0 renal
SF-295 CNS = tested on: SF-295 CNS
SNB-19 CNS = tested on: SNB-19 CNS
SK-MEL-2 melanoma = tested on: SK-MEL-2 melanoma
SK-MEL-28 melanoma = tested on: SK-MEL-28 melanoma
TK-10 renal = tested on: TK-10 renal

SMILES	GI50 (LOX IMVI melanoma)	TGI (LOX IMVI melanoma)	GI50 (OVCAR-4 ovarian)	TGI (OVCAR-4 ovarian)	GI50 (UO-31 renal)	TGI (UO-31 renal)	GI50 (HCT-15 colon)	TGI (HCT-15 colon)	GI50 (786-0 renal)	TGI (786-0 renal)	GI50 (SF-295 CNS)	TGI (SF-295 CNS)	GI50 (SNB-19 CNS)	TGI (SNB-19 CNS)	GI50 (SK-MEL-2 melanoma)	TGI (SK-MEL-2 melanoma)	GI50 (SK-MEL-28 melanoma)	TGI (SK-MEL-28 melanoma)	GI50 (TK-10 renal)	TGI (TK-10 renal)
COc1ccc2c(c1)OC(N)=C(C#N)C2c1ccc(F)cc1 (centres undefined)	1980 nM	> 100 µM	6.59 µM	> 100 µM	5640 nM	> 100 µM	515 nM	51.6 µM	3.96 µM	> 100 µM	1.96 µM	37.2 µM	2.25 µM	> 100 µM	0.633 µM	> 100 µM	15.2 µM	> 100 µM	5.83 µM	> 100 µM
O=C(CN1C(=O)c2ccccc2C1=O)C(O)CN1C(=O)c2ccccc2C1=O (centres undefined)		> 100 µM		> 100 µM		> 100 µM		> 100 µM		> 100 µM		99.8 µM		> 100 µM		> 100 µM		> 100 µM		> 100 µM
Clc1nc(Cl)c(Cc2ccccc2)c(Cl)n1		> 100 µM		29.4 µM		33.2 µM		85 µM		10.4 µM		32 µM		33.3 µM		> 100 µM		26.6 µM		32.2 µM
CC(C)(c1ccc(OC#N)cc1)c1ccc(OC#N)cc1		> 70.8 µM		> 100 µM		> 100 µM		39.7 µM		> 100 µM		> 100 µM		> 100 µM		> 100 µM		> 100 µM		> 100 µM
C=C1CC[C@@H]2[C@](C)(COC(C)=O)[C@H](OC(C)=O)CC[C@@]2(C)[C@@H]1C/C=C1/C(=O)OC[C@H]1OC(C)=O	1420 nM	2.85 µM	3.57 µM	15.4 µM	1910 nM	3.89 µM	1580 nM	4.33 µM	2.02 µM	4.34 µM	13.3 µM	26.8 µM	10.8 µM	24.5 µM	10.7 µM	26.3 µM	1.75 µM	3.38 µM	3.81 µM	13.3 µM
C=CCCCCCC(O)C(O)C/C=C\C/C=C\CC (centres undefined)		> 18.8 µM		> 18.8 µM		> 18.8 µM		> 18.8 µM		> 18.8 µM		> 18.8 µM		> 18.8 µM		> 18.8 µM		> 18.8 µM		> 18.8 µM
N#CC1=C(N)Oc2c(sc3c(F)cccc23)C1c1ccc(F)cc1 (centres undefined)	727 nM	12.2 µM	2.03 µM	16.6 µM	1270 nM	12.1 µM	421 nM	12 µM	0.746 µM	11.7 µM	0.364 µM	6.28 µM	0.585 µM	15 µM	0.982 µM	18.6 µM	1.91 µM	19.7 µM	8.24 µM	25.3 µM
O=C1C[C@@H]2CCCC[C@@H]2C12SCCS2		> 100 µM		> 100 µM		> 100 µM		> 100 µM		> 100 µM		> 100 µM		> 100 µM		> 100 µM		> 100 µM		> 100 µM
C/C=C/C=C\C1OC(O)([C@H](CC)C(=O)NC/C=C/C=C(\C)[C@H](OC)C(C)C2OC(\C=C/C=C/C=C(\C)C(=O)c3c(O)ccn(C)c3=O)[C@H](O)[C@@H]2O)C(O)C(O)C1(C)C (some centres undefined)		> 100 µM		> 100 µM		> 100 µM		> 100 µM		> 100 µM		> 100 µM		> 100 µM		> 100 µM		> 100 µM		> 100 µM
COC(=O)C(CC(=O)Nc1ccc(Cl)c(Cl)c1)C(=O)C(=O)NC1C2CC3CC(C2)CC1C3 (centres undefined)		> 100 µM		> 100 µM		> 100 µM		> 100 µM		> 100 µM		> 100 µM		> 100 µM		> 100 µM		> 100 µM		> 100 µM
COc1ccc(/C=C/C(=O)c2cc3c(N)c(C(=O)Nc4ccccc4)sc3nc2C)cc1	332 nM	2.77 µM	0.472 µM	> 50 µM	688 nM	20.1 µM	205 nM	8.53 µM	0.276 µM	> 16 µM	0.232 µM	> 50 µM	0.269 µM	> 50 µM	0.422 µM	> 50 µM	2.16 µM	> 45.1 µM	1.27 µM	> 50 µM
COc1ccc2nc(C)cc(Nc3ccccc3O)c2c1	18500 nM	39 µM	22.4 µM	> 100 µM	21200 nM	> 100 µM	32400 nM	> 100 µM	18.1 µM	42.1 µM	24.5 µM	> 100 µM	76.5 µM	> 100 µM	27.1 µM	86.8 µM	21.3 µM	57.3 µM	50.6 µM	> 100 µM
CCOC1C=CCCO1 (centres undefined)		> 100 µM		> 100 µM		38.8 µM		> 100 µM		> 100 µM		> 100 µM		> 100 µM		> 100 µM		> 100 µM		> 100 µM
Clc1ccc(SCCCCCCCCCCSc2ccc(Cl)cc2)cc1		> 100 µM		> 100 µM		> 100 µM		> 75.9 µM		> 70.4 µM		> 71.4 µM		> 100 µM		> 70.4 µM		> 100 µM		> 77.9 µM
O=C(NCP(=O)(O)O)c1cccnc1		> 100 µM		> 100 µM		> 100 µM		> 100 µM		> 100 µM		> 100 µM		> 100 µM		> 100 µM		> 100 µM		> 100 µM
CNc1nc(N(C)C)nc(N(C)C)n1	> 100000 nM and 901000 nM	> 100 µM and 5150 µM	> 100 µM and 431 µM	> 100 µM and 1260 µM	> 100000 nM and 828000 nM	> 100 µM and 3250 µM	> 100000 nM and 936000 nM	> 100 µM and 2770 µM	> 100 µM and 2790 µM	> 100 µM and 4840 µM	> 100 µM and 1130 µM	> 100 µM and 2440 µM	> 100 µM and 1210 µM	> 100 µM and 3780 µM	> 100 µM and 2150 µM	> 100 µM and 4820 µM	> 100 µM and 1240 µM	> 100 µM and 2700 µM	> 100 µM and 2270 µM	> 100 µM and 4960 µM
COc1cc(/C=C/C(=O)c2c(C)n([O-])c3ccc(Cl)cc3[n+]2=O)cc(OC)c1OC	90200 nM	> 100 µM	> 100 µM	> 100 µM	1550 nM	5.47 µM	> 100000 nM	> 100 µM	33.1 µM	> 100 µM	35 µM	> 100 µM	21.2 µM	77 µM	> 100 µM	> 100 µM	> 100 µM	> 100 µM	26.5 µM	97.7 µM
Cc1ccc(S(=O)(=O)Nc2nc3ccccc3nc2Nc2ccc3nsnc3c2)cc1	3670 nM and 3890 nM	36.1 µM and > 100 µM	3.13 µM	> 100 µM	1940 nM and 1580 nM	19 µM and 6.49 µM	3610 nM and 3840 nM	> 100 µM	3.65 µM	> 100 µM	2.98 µM and 2.36 µM	15.7 µM and 13.3 µM	3.29 µM and 3.54 µM	> 100 µM	2.87 µM and 3.22 µM		4.38 µM and 4.11 µM	> 100 µM	5.18 µM and 3.14 µM	> 100 µM
CCCCCCCCCCCC[n+]1ccc(C(N)=O)cc1	2400 nM	13.2 µM	4.73 µM	17.5 µM	9080 nM	24.7 µM	12700 nM	43.6 µM	3.33 µM	12.7 µM	2.8 µM	11.6 µM	1.82 µM	4.34 µM	3.51 µM	9.13 µM	4.33 µM	15 µM	1.73 µM	4.26 µM
OC(CNc1ccnc2cc(Cl)ccc12)CNC1CCCCC1 (centres undefined)	4570 nM	16.7 µM	3.6 µM	23.8 µM	2220 nM	11 µM	3780 nM	17 µM	11.8 µM	24.8 µM	2.13 µM	4.9 µM	22.4 µM	75.5 µM	2.28 µM	4.86 µM	1.76 µM	3.31 µM	3.61 µM	13.6 µM
CCCN(CCC)C(=O)[C@H](CC)[C@@H]1CC[C@@H](C)[C@@H]([C@H](C)[C@@H](O)[C@@H](C)C(=O)[C@H](CC)C2O[C@]3(C=C[C@@H](O)[C@]4(CC[C@@](C)([C@H]5CC[C@](O)(CC)[C@H](C)O5)O4)O3)[C@H](C)C[C@@H]2C)O1 (some centres undefined)	1500 nM	3 µM	2.95 µM	13.2 µM	2120 nM	7.03 µM	2240 nM	5.61 µM	2.79 µM	9 µM	2.45 µM	8.91 µM	3.36 µM	59.2 µM	2.43 µM	6.63 µM	4.5 µM	17.9 µM	3.3 µM	68.3 µM
C=C(C)[C@H](O)C(O)CC(C)[C@@H]1CCC23CC12CCC1[C@@]2(C)CCC(OC(C)=O)C(C)(C)C2CC(OC2OC(COC(C)=O)C(O)C(O)C2O)[C@]13C (some centres undefined)		10.7 µM		14 µM		14.5 µM		10.4 µM		13.7 µM		12.5 µM		11.6 µM		16.2 µM		13.3 µM		12.5 µM
Cc1cccc2c1C/C(=C1\CCc3c(C)cccc31)C2=O		> 100 µM		> 100 µM		> 100 µM		> 100 µM		> 100 µM		> 100 µM		> 100 µM		> 100 µM		> 100 µM		> 100 µM
COc1cc(C(=O)CC2(O)C(=O)Nc3c(Cl)cc(Cl)cc32)ccc1O (centres undefined)		> 100 µM		> 100 µM		> 100 µM		> 100 µM		> 100 µM		> 100 µM		> 100 µM		> 100 µM		> 100 µM		> 100 µM
Oc1ccc(N=Nc2ccc(N=Nc3ccccc3)cc2)cc1	285 nM	1.76 µM	8.43 µM	32.9 µM	610 nM	3.73 µM	855 nM	12.9 µM	1.32 µM	6.05 µM	2.32 µM	10.1 µM	6.39 µM	19.7 µM	2.29 µM	8.06 µM	1.7 µM	3.64 µM	1.98 µM	5.55 µM
O=C1/C(=C/c2ccc(Cl)cc2)COc2ccc(O)c(O)c21	330 nM	1.36 µM	1.33 µM	2.71 µM	458 nM	1.84 µM	356 nM	4.18 µM	1.42 µM	5.17 µM	3.37 µM	13.2 µM	1.43 µM	2.95 µM	2.51 µM	7.63 µM	1.53 µM	3.06 µM	1.71 µM	3.19 µM
CC(C)C[C@@H]1NC(=O)[C@@H]2CCCN2C(=O)[C@@H]2CCCN2C(=O)[C@H](CC(C)C)NC(=O)[C@H](CO)NC(=O)[C@H](CCCCN)NC(=O)[C@H]([C@H](C)O)NC(=O)[C@@H]2CCCC[C@@H](NC1=O)C(=O)N[C@@H](Cc1ccccc1)C(=O)N1CCC[C@H]1C(=O)N[C@@H](CC(=O)O)C(=O)NCC(=O)N[C@@H](CCCN=C(N)N)C(=O)N2	> 50000 nM	> 50 µM	> 50 µM	> 50 µM	> 50000 nM	> 50 µM	> 50000 nM	> 50 µM	> 50 µM	> 50 µM	> 50 µM	> 50 µM	> 50 µM	> 50 µM	> 50 µM	> 50 µM	> 50 µM	> 50 µM	> 50 µM	> 50 µM
N#Cc1nc2cc(F)c(F)cc2nc1-c1ccc(Cl)cc1	1320 nM	2.68 µM	> 62 µM	> 100 µM	12200 nM	38.1 µM	1440 nM	2.76 µM	16.3 µM	43.9 µM	12.2 µM	38.9 µM	14.5 µM	> 85.9 µM	8.41 µM	25.5 µM	22 µM	> 100 µM	22.4 µM	67.3 µM
C[CH2][Sn]([Cl])([Cl])[CH2]C	17500 nM	33.1 µM	> 100 µM	> 100 µM	97800 nM	> 100 µM	> 43200 nM	> 60.9 µM	28.9 µM	> 56 µM	> 75 µM	> 100 µM	39.5 µM	> 91.9 µM	17 µM	37.4 µM	19.8 µM	36.3 µM	18.3 µM	32.4 µM
